Broadly, the EC50 is the concentration at which the effect is half-maximal.

Here are results for 8 molecules from patent publication US20180185325A1, “12H-BENZO[b]XANTHEN-12-ONES, COMPOSITIONS CONTAINING, AND USES OF, SAME” (Thesan Pharmaceuticals, Inc., priority 2015, published 2018).

The test system of data set [1] is CYP1A1. Description: EROD assay in HepG2 cells (cleavage of 7-ethoxyresorufin to resorufin). The class given is cell-based, human. Conditions: human, probe 7-ethoxyresorufin (8 μM). Here is the method:
(§1) HepG2 cells are seeded at between 1×10^4 and 2.5×10^4 cells/well in a 96-well microtitre plate. […] The formation of resorufin is quantified by fluorometry with a fluorescence plate reader. Fluorescence is determined at λex 570 nm and λem 590 nm. […] The remaining (i.e. all cells present at the beginning of analysis, since only supernatant is taken to assay EROD) live cells are subsequently utilized for the MIT cytotoxicity assay. […] The medium is carefully removed, then MIT formazan is solubilized by adding 200 μl of DMSO and subsequently mixed on a plate shaker. The absorbance is measured spectrophotometrically at 550 nm and background absorbance at 690 nm is subtracted.

A further data set concerns HepG2 cells. Description: MTT cytotoxicity assay in HepG2 cells. The data set is classed as cell-based, human. Conditions: human, 24 h. Here is the method: as §1
In general terms: Tetrazolium dyes change colour on reduction, which living cells bring about.

For another data set, the system named is human sebocyte cells. Description: MTT cytotoxicity assay in human cultured sebocytes. The data set is classed as cell-based. Here is the method:
(§2) Cells are seeded at between 1×10^4 and 2.5×10^4 cells/well in a 96-well microtitre plate. […] The formation of resorufin is quantified by fluorometry with a fluorescence plate reader. Fluorescence is determined at λex 570 nm and […]. The amount of resorufin is calculated from a standard curve generated using 0 to 1 μM resorufin in water at 34 log dilutions. The remaining (i.e. all cells present at the beginning of analysis, since only supernatant is taken to assay EROD) live cells are subsequently utilized for the MIT cytotoxicity assay. MIT is made up in serum-free medium at 5 mg/ml. then added to the cells giving a final concentration of 10% (0.5 mg/ml MIT final) then incubated for 2 h. The medium is carefully removed, then MTT formazan is solubilized by adding 200 μl of DMSO and subsequently mixed on a plate shaker. The absorbance is measured spectrophotometrically at 550 nm and background absorbance at 690 nm is subtracted. A standard curve generated using MTT formazan (dissolved in DMSO) from 0-200 μM (0, 2, 5, 10, 20, 50, 100, 200 μM) is used to calculate the final experimental values which are then expressed as (μmol resorufin/mol MIT formazan) or as fold-induction compared to solvent.

For a further data set, the system named is CYP1A1 mRNA. Description: CYP1A1 mRNA assay in HepG2 cells (RT-PCR). The data set is classed as cell-based, human. Conditions: 10 uM. On the procedure: HepG2 cells (American Type Culture Collection (ATCC), Manassas, Va.) were cultured using Eagle's minimal essential medium (ATCC), supplemented with 10% fetal calf serum (Invitrogen Life Technologies). […] Cells were plated at a seeding density of 3.8×10^5 cells per well on 6-well plates (Corning Costar, NY, U.S.A.). Cells were allowed to attach for 24 h in a 37° C. humidified incubator with a 5% CO2 atmosphere. Media was replaced with that containing test agents or vehicle (0.1% dimethylsulphoxide) and cells incubated for a further 24 h. Following the 24 h incubation with test agents, media was removed and RNA prepared using the Purelink RNA mini kit (ThermoFischer, Carlsbad, Calif.). Nucleic acid concentration was determined using a Nanodrop™ spectrophotometer (ThermoScientific) by measuring the OD at 260 nm and RNA purity was evaluated using the OD 260/280 nm ratio. 1 μg RNA was reverse transcribed using SuperScript®VILO™ (ThermoFischer) with cDNA synthesis performed using the following parameters: 10 min at 25° C., 2 h at 42° C., 5 min at 85° C. (deactivation) followed by a completion temperature of 4° C. […] Each sample (1 μl) was pipetted into a 96-well optical reaction plate (Applied Biosystems, Carlsbad, Calif.). […] Results were analyzed by calculating the fold change of CYP1A1 mRNA levels normalized to 18S rRNA (ΔΔCt) in compound treated cells or tissues compared to vehicle levels.

Data set [2] relates to CYP1A1. Kind of data set: EROD assay in human cultured sebocytes. The data set is classed as cell-based. The conditions noted are these: cultured sebocytes, probe 7-ethoxyresorufin (8 μM). On the procedure:
as §2

The subject of the next data set is sebaceous glands. Kind of data set: Mouse ear assay for sebaceous gland prevalence. Conditions: topical 1% solution in DMSO:acetone 50:50, twice a day for five days, vs controls. The class given is in vivo, C57BL/6J mice. On the procedure:
C57BL/6J male mice (Harlan Models), approximately 4-5 weeks of age, body weight 20-30 g, were acclimatized (individually housed) for 5 days in a 12 hour light/dark cycle standard laboratory environment (T=20-24° C., relative humidity 30-70%, 15-20 air changes per hour) with access to water and standard rodent chow (Harlan Tekiad 2014C supplied by Harlan Laboratories Models, S.L.) ad libitum. Animals were anesthetized with isoflurane and the test article (80 ul, 1% solution in DMSO:acetone 50:50) was administered to the outer surface of each of the ears of between 2 and 5 mice twice a day for five days by dermal application using a micropipette tip (a little volume of the solution was also applied on the inner side of the ears). All animals were monitored daily for reaction to the treatment, signs of illness, and behavioral changes. Body weights were recorded before the first administration and immediately prior to sacrifice. Approximately 12 to 16 hours after the final administration on day 5 the mice were sacrificed by i.p. injection of sodium pentobarbital (200 mg/kg) and the ears were collected. Each ear was sectioned into two halves. For each animal, one-half of one ear was fixed, in neutral phosphate-buffered 4% formaldehyde solution (4% formalin). This trimmed section of the ear was then processed, embedded in paraffin wax and stored at room temperature. […]

The target of data set [3] is T1, Aryl Hydrocarbon Receptor (Homo sapiens, UniProt P35869).
T1 construct: endogenous in cells; host or cells: Hep G2 cells stably transduced with the lentivector plox-XRE TATA-Luc (reporter only)
T1 sequence (P35869 11-848): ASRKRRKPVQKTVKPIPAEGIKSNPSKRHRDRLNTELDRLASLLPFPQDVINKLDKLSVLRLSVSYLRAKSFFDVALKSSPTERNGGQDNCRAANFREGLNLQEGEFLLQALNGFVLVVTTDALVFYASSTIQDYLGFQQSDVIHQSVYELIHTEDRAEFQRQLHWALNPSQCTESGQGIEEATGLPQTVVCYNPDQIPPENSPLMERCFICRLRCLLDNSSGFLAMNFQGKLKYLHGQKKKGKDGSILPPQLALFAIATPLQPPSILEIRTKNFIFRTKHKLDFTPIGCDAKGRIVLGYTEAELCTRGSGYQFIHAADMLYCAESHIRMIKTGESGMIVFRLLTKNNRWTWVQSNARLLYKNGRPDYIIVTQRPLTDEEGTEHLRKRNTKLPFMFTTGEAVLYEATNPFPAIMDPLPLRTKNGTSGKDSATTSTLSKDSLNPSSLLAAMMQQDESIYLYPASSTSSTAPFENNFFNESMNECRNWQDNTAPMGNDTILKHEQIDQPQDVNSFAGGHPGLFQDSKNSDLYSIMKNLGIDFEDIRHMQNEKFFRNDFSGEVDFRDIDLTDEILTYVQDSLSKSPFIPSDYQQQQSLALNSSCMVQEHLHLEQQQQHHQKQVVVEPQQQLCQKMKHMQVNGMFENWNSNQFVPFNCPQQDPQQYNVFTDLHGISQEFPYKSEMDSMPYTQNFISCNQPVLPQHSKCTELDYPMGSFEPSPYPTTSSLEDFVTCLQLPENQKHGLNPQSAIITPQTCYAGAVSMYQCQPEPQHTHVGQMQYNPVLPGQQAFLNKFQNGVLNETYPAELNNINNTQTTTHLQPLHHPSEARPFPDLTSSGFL
Kind of data set: AhR activation luciferase reporter in Hep G2-plox-XRE TATA-Luc cells. Conditions: 24 h, 1-10 uM. The data set is classed as cell-based. On the procedure: AhR activation is measured in HEP G2 cells (hepatocytes, Hep G2 is a human liver carcinoma cell line) stably transfected with the lentivector plox-XRE TATA-Luc. The Hep G2 cells are cultured in a growing media consisting of DMEM (Gibco)+10% fetal bovine serum+penicillin+streptomycin. At D0, the Hep G2 cells are seeded into 12-well plates in proportions of approximately 30,000 cells/cm^2. After 24 h, the medium is replaced with fresh medium and the cells are transduced with the lentivector plox-XRE TATA-Luc. After 48 h, the cells are subcultured and maintained in culture, and tested for their reactivity to 3-phenyl-1H-benzo[f]chromen-1-one. The tests are carried out using the luciferase reporter assay system kit from Promega. At D0, the cells are seeded at a density of approximately 60% confluence, and then treated, at D1, with the test substance diluted to various concentrations in the appropriate culture medium. At […], the cells are lysed in CLB buffer, and the lysate is clarified by centrifugation for 5 min at 10 000 g. The luciferase activity is measured in 20 microliters of lysate as recommended by the supplier, using the luminoskan luminometer (Thermo). […] Data is processed and EC50's can be calculated from standard data monitoring software.
Background: A reporter such as luciferase makes a cellular process visible.

Data set [4] concerns the target T1, Aryl Hydrocarbon Receptor. Kind of data set: AhR activation luciferase reporter in NHK-plox-XRE TATA-Luc cells. The class given is cell-based. Conditions: 24 h, 1-10 uM. Here is the method:
AhR activation is also measured in human skin cells such as normal human keratinocytes (NHK cells) or A431 epidermoid cells stably transfected with the lentivector plox-XRE TATA-Luc. The NHK cells are cultured in a specific keratinocyte SFM medium (Gibco)+penicillin+streptomycin. At D0, the NHK cells are seeded into 6-well plates in a proportion of approximately […]. After 24 h, the medium is replaced with fresh medium and the cells are transduced with the lentivector plox-XRE TATA-Luc. After 48 h, the cells are subcultured and maintained in culture, and tested for their reactivity to 3-phenyl-1H-benzo[f]chromen-1-one. The tests are carried out using the luciferase reporter assay system kit from Promega. At D0, the cells are seeded at a density of approximately 60% confluence, and then treated, at D1, with the test substance diluted to various concentrations in the appropriate culture medium. At D2, the cells are lysed in CLB buffer, and the lysate is clarified by centrifugation for 5 min at 10 000 g. The luciferase activity is measured in 20 microliters of lysate as recommended by the supplier, using the luminoskan luminometer (Thermo). […] Data is processed and EC50's can be calculated from standard data monitoring software.

Some results are limits rather than exact numbers.

`COc1ccc2c(=O)c3c(ccc4ccccc43)oc2c1` [Compound M] gave a 50% effective concentration (EC50) at 24 h in the data set with CYP1A1 [1] of 3000 nM. Further, the Toxicity threshold in the data set on HepG2 cells is over 30 µM; in the data set with human sebocyte cells it was 50 µM.
With `O=c1c2ccccc2oc2ccc3ccccc3c12` [Compound C], in the data set on CYP1A1 mRNA, the “induction of CYP1A1 mRNA (in words)” value is “potent inducer”. The figures for the EC50 at 24 h in the data set on CYP1A1 [1] and in the data set with CYP1A1 [2] were 2500 nM and 200 nM, respectively. Moreover, the Toxicity threshold in the data set with HepG2 cells and with human sebocyte cells was over 30 µM in each case. Besides, the “number of differentiated sebocytes” value in the data set on sebaceous glands is on record as “a reduction”. Moreover, in the data set on sebaceous glands, the “number of sebaceous glands” value is given as “a clear reduction”.
As for `O=c1c2cc(O)ccc2oc2ccc3ccccc3c12` [Compound L], the values for the EC50 at 24 h with CYP1A1 [1] and in the data set on CYP1A1 [2] were 600 nM and 500 nM, respectively. The Toxicity threshold was over 100 µM with HepG2 cells and over 50 µM with human sebocyte cells.
As for `O=c1cc(-c2ccccc2)oc2ccc3ccccc3c12` [3-phenyl-1H-benzo[f]chromen-1-one, 3-Phenyl-1H-benzo[f]chromen-1-one], the “induction of the luciferase activity” value in data set [3] is listed as “a significant induction”. For the same molecule, the “induction of luciferase activity” value in data set [4] was “a significant induction”.
Take `COc1ccc2oc3ccc4ccccc4c3c(=O)c2c1` [Compound K]: the EC50 at 24 h in the data set on CYP1A1 [1] and in the data set with CYP1A1 [2] was 500 nM throughout. In addition, the Toxicity threshold in the data set on HepG2 cells is over 100 µM; in the data set with human sebocyte cells, over 50 µM.
`O=c1c2cccc(O)c2oc2ccc3ccccc3c12` [Compound P]: the EC50 at 24 h in the data set on CYP1A1 [1] stood at 2000 nM; in the data set with CYP1A1 [2], 200 nM. Further, the Toxicity threshold in the data set on HepG2 cells and in the data set with human sebocyte cells was over 100 µM each time.
Consider `COc1cccc2c(=O)c3c(ccc4ccccc43)oc12` [Compound O], for which the Toxicity threshold with HepG2 cells and in the data set with human sebocyte cells was over 100 µM throughout.
As for `O=c1c2ccc(O)cc2oc2ccc3ccccc3c12` [Compound N], the EC50 at 24 h in the data set on CYP1A1 [1] was determined as 1500 nM. In addition, the results for the Toxicity threshold in the data set with HepG2 cells and in the data set on human sebocyte cells were over 30 µM and over 50 µM, respectively.
